From EPA's ToxRefDB 2

How the values were obtained:
rat [1] = conditions: Subchronic oral toxicity in rodents, other, Feed, dose end: 90 day, group: systemic
rat [2] = conditions: Combined chronic toxicity/carcinogenicity, sprague dawley, Oral, Feed, dose end: 104 week, group: systemic
dog [3] = conditions: Subchronic oral toxicity in nonrodent, beagle, Feed, dose end: 90 day, group: systemic, systemic / in life observation / body weight / body weight gain + systemic / in life observation / clinical signs / emaciation + systemic / …
dog [4] = conditions: Chronic toxicity, beagle, Oral, Feed, dose end: 52 week, group: systemic
mouse [5] = conditions: Combined chronic toxicity/carcinogenicity, cd1, Oral, Feed, dose end: 80 week, group: systemic
mouse [6] = conditions: Subchronic oral toxicity in rodents, cd1, Feed, dose end: 91 day, group: systemic
rat [7] = conditions: Multigenerational reproductive toxicity study, sprague dawley, Oral, Feed, dose end: 2 generation
rat [8] = conditions: Subchronic oral toxicity in rodents, other, Feed, dose end: 90 day, group: systemic; remark: listed apart in the source
dog [9] = conditions: Subchronic oral toxicity in nonrodent, beagle, Feed, dose end: 90 day, group: systemic, systemic / clinical chemistry / alkaline phosphatase (alp/alk) / alkaline phosphatase (alp/alk) + systemic / organ weight / liver / absolute…
dog [10] = conditions: Subchronic oral toxicity in nonrodent, beagle, Feed, dose end: 13 week, group: systemic, systemic / pathology microscopic / intestine large / vacuolization + systemic / pathology microscopic / intestine small / vacuolization + …
rat [11] = conditions: Subchronic oral toxicity in rodents, fischer, Feed, dose end: 3 month, group: systemic
rat [12] = conditions: Multigenerational reproductive toxicity study, sprague dawley, Oral, Feed, dose end: 2 generation; remark: listed apart in the source
mouse [13] = conditions: Subchronic oral toxicity in rodents, cd1, Feed, dose end: 13 week, group: systemic, systemic / pathology microscopic / adrenal gland / vacuolization cytoplasmic + systemic / pathology microscopic / bone marrow / …
rat [14] = conditions: Combined chronic toxicity/carcinogenicity, fischer, Oral, Feed, dose end: 24 month, group: systemic
dog [15] = conditions: Chronic toxicity, beagle, Oral, Feed, dose end: 52 week, group: systemic; remark: listed apart in the source
rat [16] = conditions: Subchronic oral toxicity in rodents, fischer, Feed, dose end: 13 week, group: systemic, systemic / pathology microscopic / thyroid gland / vacuolization + systemic / organ weight / heart / nos
mouse [17] = conditions: Carcinogenicity, cd1, Oral, Feed, dose end: 18 month, group: systemic
[18] = systemic / organ weight / liver / absolute + systemic / organ weight / liver / relative to body weight + systemic / clinical chemistry / …
[19] = systemic / organ weight / liver / absolute + systemic / organ weight / liver / relative to body weight + systemic / in life observation / …
[20] = systemic / clinical chemistry / globulins / globulins + systemic / pathology gross / full gross necropsy / lymp lymphoma malignant …
[21] = systemic / pathology microscopic / liver / hypertrophy
[22] = systemic / in life observation / body weight / body weight + systemic / in life observation / body weight / body weight gain + systemic / in…
[23] = systemic / pathology gross / ear / misshapen
[24] = systemic / pathology microscopic / liver / hypertrophy + systemic / clinical chemistry / albumin / albumin + systemic / clinical chemistry…
[25] = group: offspring, systemic / in life observation / body weight / offspring (pup) weight
[26] = group: parental, systemic / in life observation / body weight / body weight gain + systemic / in life observation / body weight / body weight
[27] = group: reproductive, reproductive / reproductive performance / gestational length / gestational length
[28] = systemic / pathology microscopic / liver / inclusion body intracytoplasmic
[29] = systemic / pathology microscopic / heart / cardiomyopathy + systemic / pathology microscopic / lymph node / histiocytosis + systemic / …
[30] = systemic / pathology microscopic / lymph node / histiocytosis + systemic / pathology microscopic / spleen / histiocytosis + systemic / …
[31] = group: parental, systemic / organ weight / heart / absolute + systemic / organ weight / heart / relative to body weight + systemic / organ weight / kidney / …
[32] = group: reproductive, reproductive / offspring survival early / litter size / litter size + reproductive / offspring survival early / birth index / live birth …
[33] = systemic / pathology microscopic / thyroid gland / vacuolization
[34] = systemic / pathology microscopic / thyroid gland / vacuolization + systemic / clinical chemistry / alkaline phosphatase (alp/alk) / alkaline…
[35] = systemic / pathology microscopic / lymph node / vacuolization + systemic / pathology microscopic / spleen / vacuolization + systemic / organ…

## CCOCn1c(-c2ccc(Cl)cc2)c(C#N)c(Br)c1C(F)(F)F [Chlorfenapyr]
Rat [1]; [18]
  NEL: 24.1 mg/kg/day
  NOAEL: 24.1 mg/kg/day
Rat [1]; [19]
  LEL: 48.4 mg/kg/day
  LOAEL: 48.4 mg/kg/day
Rat [2]; [20]
  NEL: 30.8 mg/kg/day
  NOAEL: 2.9 mg/kg/day
Rat [2]; [21]
  LOAEL: 15 mg/kg/day
Dog [3]
  LEL: 6.7 mg/kg/day
  LOAEL: 6.7 mg/kg/day
  NEL: 3.9 mg/kg/day
  NOAEL: 3.9 mg/kg/day
Dog [4]; systemic / in life observation / body weight / body weight + systemic / in life observation / body weight / body weight gain
  LOAEL: 8.7 mg/kg/day
Dog [4]; [22]
  LEL: 8.7 mg/kg/day
  NEL: 4 mg/kg/day
  NOAEL: 4 mg/kg/day
Mouse [5]; systemic / in life observation / clinical signs / scabbing + systemic / pathology microscopic / brain / vacuolization
  LOAEL: 16.6 mg/kg/day
Mouse [5]; systemic / in life observation / clinical signs / scabbing + systemic / pathology microscopic / brain / vacuolization + systemic / …
  NOAEL: 2.8 mg/kg/day
Mouse [5]; [23]
  LEL: 2.8 mg/kg/day
  NEL: < 2.8 mg/kg/day
Mouse [6]; [21]
  LOAEL: 14.8 mg/kg/day
Mouse [6]; [24]
  NEL: 7.1 mg/kg/day
  NOAEL: 7.1 mg/kg/day
Mouse [6]; systemic / pathology microscopic / liver / hypertrophy + systemic / hematology / lymphocyte / lymphocyte + systemic / hematology / …
  LEL: 14.8 mg/kg/day
Rat [7]; [25]
  LEL: 22 mg/kg/day
  LOAEL: 22 mg/kg/day
  NEL: 5 mg/kg/day
  NOAEL: 5 mg/kg/day
Rat [7]; group: parental, systemic / in life observation / body weight / body weight + systemic / in life observation / body weight / body weight gain
  NEL: 5 mg/kg/day
Rat [7]; group: parental, systemic / in life observation / body weight / body weight gain
  LOAEL: 22 mg/kg/day
Rat [7]; [26]
  LEL: 22 mg/kg/day
  NOAEL: 5 mg/kg/day
Rat [7]; [27]
  LEL: 44 mg/kg/day
  LOAEL: > 44 mg/kg/day
  NEL: 22 mg/kg/day
  NOAEL: ≥ 44 mg/kg/day

## COCC(=O)N(c1c(C)cccc1C)[C@H](C)C(=O)OC [Metalaxyl-M]
Rat [8]; [28]
  LEL: 44.8 mg/kg/day
  NEL: 16.8 mg/kg/day
Rat [8]; systemic / pathology microscopic / liver / infiltration cellular + systemic / pathology microscopic / liver / inclusion body …
  LOAEL: 90.5 mg/kg/day
Dog [9]
  LEL: 38.6 mg/kg/day
  LOAEL: 38.6 mg/kg/day
  NEL: 7.25 mg/kg/day
  NOAEL: 7.25 mg/kg/day

## CC[C@H]1CCC[C@H](O[C@H]2CC[C@H](N(C)C)[C@@H](C)O2)[C@@H](C)C(=O)C2=C[C@@H]3[C@@H](C=C(C)[C@@H]4C[C@@H](O[C@@H]5O[C@@H](C)[C@H](OC)[C@@H](OC)[C@H]5OC)C[C@@H]34)[C@@H]2CC(=O)O1.CC[C@H]1CCC[C@H](O[C@H]2CC[C@H](N(C)C)[C@@H](C)O2)[C@@H](C)C(=O)C2=C[C@@H]3[C@@H](C=C[C@@H]4C[C@@H](O[C@@H]5O[C@@H](C)[C@H](OC)[C@@H](OC)[C@H]5OC)C[C@@H]34)[C@@H]2CC(=O)O1 [Spinosad]
Dog [10]
  LEL: 9.73 mg/kg/day
  LOAEL: 9.73 mg/kg/day
  NEL: 4.89 mg/kg/day
  NOAEL: 4.89 mg/kg/day
Rat [11]; [29]
  LOAEL: 68.5 mg/kg/day
  NOAEL: 33.9 mg/kg/day
Rat [11]; [30]
  LEL: 33.9 mg/kg/day
  NEL: < 33.9 mg/kg/day
Rat [12]; [25]
  LEL: 10 mg/kg/day
  NEL: 3 mg/kg/day
Rat [12]; group: offspring, systemic / in life observation / clinical signs / hemorrhagic perineal discharge
  NOAEL: 10 mg/kg/day
Rat [12]; group: offspring, systemic / in life observation / clinical signs / hemorrhagic perineal discharge + systemic / in life observation / body weight / offspring…
  LOAEL: 100 mg/kg/day
Rat [12]; [31]
  LEL: 100 mg/kg/day
  LOAEL: 100 mg/kg/day
  NEL: 10 mg/kg/day
  NOAEL: 10 mg/kg/day
Rat [12]; [32]
  NEL: 10 mg/kg/day
  NOAEL: 10 mg/kg/day
Rat [12]; group: reproductive, reproductive / offspring survival early / litter size / litter size + reproductive / reproductive performance / dystocia / dystocia
  LOAEL: 100 mg/kg/day
Rat [12]; group: reproductive, reproductive / offspring survival early / litter size / litter size + reproductive / reproductive performance / dystocia / dystocia + …
  LEL: 100 mg/kg/day
Mouse [13]
  LEL: 22.5 mg/kg/day
  LOAEL: 22.5 mg/kg/day
  NEL: 7.5 mg/kg/day
  NOAEL: 7.5 mg/kg/day
Rat [14]; [33]
  LEL: 9.5 mg/kg/day
  LOAEL: 24.1 mg/kg/day
Rat [14]; [34]
  NEL: 2.4 mg/kg/day
  NOAEL: 9.5 mg/kg/day
Dog [15]; systemic / pathology microscopic / lymph node / vacuolization + systemic / pathology microscopic / spleen / vacuolization
  LOAEL: 8.22 mg/kg/day
Dog [15]; [35]
  LEL: 8.22 mg/kg/day
  NEL: 2.72 mg/kg/day
  NOAEL: 2.72 mg/kg/day
Rat [16]
  LEL: 42.7 mg/kg/day
  LOAEL: > 42.7 mg/kg/day
  NOAEL: ≥ 42.7 mg/kg/day
Mouse [17]; systemic / hematology / leukocyte (wbc) count differential / leukocyte (wbc)
  LOAEL: 41.5 mg/kg/day
Mouse [17]; systemic / hematology / leukocyte (wbc) count differential / leukocyte (wbc) + systemic / organ weight / liver / relative to body weight + …
  NOAEL: 1.3 mg/kg/day
Mouse [17]; systemic / organ weight / brain / relative to body weight
  NEL: 1.1 mg/kg/day
Mouse [17]; systemic / organ weight / brain / relative to body weight + systemic / in life observation / body weight / body weight + systemic / in life …
  LEL: 32.7 mg/kg/day
